Source: PMC6511944 (Journal of Medicinal Chemistry, 2019)
Entries after “also recorded” stand apart in the source; their conditions may differ.

Assays:
RAW 264.7 macrophages = experiment: protection of RAW 264.7 macrophages from LPS-induced cytotoxicity; details: LPS 100 μg/mL, MTS assay
iNOS = format: cell-based, murine; details: 5 μM, RAW 264.7 macrophages activated by LPS and IFNγ (10 ng/mL of each)
NF-κB = experiment: RAW-Blue NF-κB reporter gene assay; format: cell-based, murine; details: RAW-Blue macrophages, 0.2, 1 and 5 μM, LPS/IFNγ 10 ng/mL of each
NO production = experiment: nitric oxide; format: cell-based, murine; details: RAW 264.7 cells, 0.2, 1 and 5 μM, LPS/IFNγ 10 ng/mL of each
[1] = test system: lipid peroxidation in RAW 264.7 cells; experiment: lipid peroxidation by BODIPY 581/591 C11 staining and FACS in RAW 264.7 cells; format: cell-based, murine; details: 5 μM, LPS/IFNγ 10 ng/mL of each, 24 h
15-LOX-1 = target: T1, 15-LOX-1 (Homo sapiens, UniProt P16050); format: biochemical
T1 sequence (P16050 1-662): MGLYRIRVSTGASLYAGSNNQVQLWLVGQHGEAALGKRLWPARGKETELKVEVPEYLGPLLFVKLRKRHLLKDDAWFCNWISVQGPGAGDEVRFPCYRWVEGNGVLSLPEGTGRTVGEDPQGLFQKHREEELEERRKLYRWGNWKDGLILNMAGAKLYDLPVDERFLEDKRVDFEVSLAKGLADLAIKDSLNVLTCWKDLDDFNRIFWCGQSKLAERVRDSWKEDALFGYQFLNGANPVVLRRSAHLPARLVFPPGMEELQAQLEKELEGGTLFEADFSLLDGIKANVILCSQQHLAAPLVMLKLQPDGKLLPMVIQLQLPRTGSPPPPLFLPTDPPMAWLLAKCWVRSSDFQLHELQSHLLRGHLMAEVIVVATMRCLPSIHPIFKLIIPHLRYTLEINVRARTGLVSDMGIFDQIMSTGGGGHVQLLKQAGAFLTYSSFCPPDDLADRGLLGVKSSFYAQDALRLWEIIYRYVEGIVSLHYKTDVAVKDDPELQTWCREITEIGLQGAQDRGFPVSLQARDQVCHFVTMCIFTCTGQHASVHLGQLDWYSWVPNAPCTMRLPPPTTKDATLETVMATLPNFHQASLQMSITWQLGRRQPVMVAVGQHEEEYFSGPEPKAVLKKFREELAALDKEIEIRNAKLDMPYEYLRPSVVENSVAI

Q: For `CC(c1cc2ccccc2s1)N(O)C(N)=O` (stereo not drawn) [Zileuton], which “effect on viability of LPS-treated RAW 264.7 macrophages, in words” value (RAW 264.7 macrophages) is on record?
A: The value was “comparably improved the viability”.

Q: What does the source list for `CCOC(=O)c1[nH]c2cc(Cl)ccc2c1/C=C/C(=O)NCc1ccccc1OC` [Compound 9c, Ethyl (E)-6-Chloro-3-(3-((2-methoxybenzyl)amino)-3-oxoprop-1-en-1-yl)-1H-indole-2-carboxylate]?
A: downregulation of iNOS gene expression (iNOS): approximately 50%; inhibition of NF-κB transcriptional activation (NF-κB): significant but not complete inhibition; inhibition of NO production (total nitrate/nitrite) (NO production): dose-dependent inhibition; effect on the boost of lipid peroxides ([1]; listed as 9c (i472)): significantly attenuated; also recorded: clear reduction back to baseline levels; effect on viability of LPS-treated RAW 264.7 macrophages, in words (RAW 264.7 macrophages): stronger, dose-dependent effects

Q: `c1ccc2c(c1)SCc1c-2[nH]c2ccccc12` [PD-146176, reference compound] was tested. Which “effect on the boost of lipid peroxides” value [1] did it give?
A: The value was “significantly attenuated”.

Q: Which “effect on viability of LPS-treated RAW 264.7 macrophages, in words” value (RAW 264.7 macrophages) does the source give for `CCOC(=O)c1[nH]c2cc(Cl)ccc2c1C(=O)C[C@@H](C)CCCC(C)C` [Eleftheriadis-14d] here?
A: Its value is “comparably improved the viability”.

Q: `CCCNC(=O)c1[nH]c2cc(Cl)ccc2c1CN(C)C` [Compound 13, 6-Chloro-3-((dimethylamino)methyl)-N-propyl-1H-indole-2-carboxamide] was tested. Which “potency against 15-LOX-1, in words” value (15-LOX-1) did it give?
A: The value was “complete loss in potency”.
